Values quoted from earlier work, collected in patent US20230039272A1, “COMPOSITION FOR IMPROVED ENERGY, FOCUS AND CLARITY” (Gwella Mushrooms Inc., priority 2021, published 2023).
Residues, ends and D or L forms follow the SMILES beside them. *: point of attachment. PhAc = O=C(Cc1ccccc1)*

Assays:
[1] = high doses for long periods of time
[2] = patients with mild to moderate dementia

| SMILES | safety [1] | step-down retention performance and acquisition performance in active-avoidance situations (in vivo) | learning of animals (pre-clinical studies) | quality of life scale [2] | test scores on logical performance, attention, concentration, memory and spatial orientation [2] | cognition restoring effect (Amyloid Beta exposure; animal models of Alzheimer's Disease, preliminary studies) | neuroprotective effect (cell viability, calcium homeostasis, Reactive Oxygen Species levels, mitochondrial function, tau phosphorylation, neurite outgrowth) (Amyloid Beta exposure; impairments caused by Amyloid Beta exposure) |
| --- | --- | --- | --- | --- | --- | --- | --- |
| NC(=O)CN1CC(O)CC1=O (stereo not shown) [Oxiracetam] | save, even at high doses for long periods of time | improve step-down retention performance and acquisition performance | improve learning of animals | improved quality of life scale | higher test scores | – | – |
| CCOC(=O)CNC(=O)[C@@H]1CCCN1C(=O)Cc1ccccc1 [N-phenylacetyl-L-prolylglycine ethyl ester] (PhAc-Pro-Gly-OEt) | – | – | – | – | – | cognition restoring effect | neuroprotective effect |
